According to ChEMBL document CHEMBL3091428, “Synthesis and initial biological evaluation of substituted 1-phenylamino-2-thio-4,5-dimethyl-1H-imidazole derivatives” (Bioorg Med Chem Lett, 2013):
Values after ≈ are worked out from the molar mass of the structure shown.

What was measured:
Nakaseomyces glabratus = experiment: Antimicrobial activity against Candida glabrata ATCC 90030 after 24 hrs by broth microdilution method; assay type: functional; details: ATCC 90030, 24 h
Escherichia coli [1] = experiment: Antimicrobial activity against Escherichia coli ATCC 25922 after 24 hrs by broth microdilution method; assay type: functional; details: ATCC 25922, 24 h
Klebsiella pneumoniae = experiment: Antimicrobial activity against Klebsiella pneumoniae ATCC 13883 after 24 hrs by broth microdilution method; assay type: functional; details: ATCC 13883, 24 h
Artemia salina [2] = experiment: Toxicity in brine shrimp larvae assessed as mortality at 50 ug/ml after 24 hrs; assay type: organism-based; details: in vivo
Artemia salina [3] = experiment: Toxicity in brine shrimp larvae assessed as mortality at 800 ug/ml after 24 hrs; assay type: organism-based; details: in vivo
Listeria monocytogenes = experiment: Antimicrobial activity against Listeria monocytogenes ATCC 19115 after 24 hrs by broth microdilution method; assay type: functional; details: ATCC 19115, 24 h
Staphylococcus aureus = experiment: Antimicrobial activity against Staphylococcus aureus ATCC 25923 after 24 hrs by broth microdilution method; assay type: functional; details: ATCC 25923, 24 h
Artemia salina [4] = experiment: Toxicity in brine shrimp larvae assessed as mortality at 1600 ug/ml after 24 hrs; assay type: organism-based; details: in vivo
Candida albicans = experiment: Antimicrobial activity against Candida albicans ATCC 90028 after 24 hrs by broth microdilution method; assay type: functional; details: ATCC 90028, 24 h
Artemia salina [5] = experiment: Toxicity in brine shrimp larvae assessed as mortality at 100 ug/ml after 24 hrs; assay type: organism-based; details: in vivo
Enterococcus faecalis [6] = experiment: Antimicrobial activity against Enterococcus faecalis ATCC 29212 after 24 hrs by broth microdilution method; assay type: functional; details: ATCC 29212, 24 h
Pichia kudriavzevii = experiment: Antimicrobial activity against Candida krusei ATCC 6258 after 24 hrs by broth microdilution method; assay type: functional; details: ATCC 6258, 24 h
Escherichia coli [7] = experiment: Antimicrobial activity against Escherichia coli ATCC 35218 after 24 hrs by broth microdilution method; assay type: functional; details: ATCC 35218, 24 h
Pseudomonas aeruginosa = experiment: Antimicrobial activity against Pseudomonas aeruginosa ATCC 27853 after 24 hrs by broth microdilution method; assay type: functional; details: ATCC 27853, 24 h
[8] = Toxicity in brine shrimp larvae assessed as mortality after 24 hrs; assay type: organism-based; details: artemia salina, in vivo
Enterococcus faecalis [9] = experiment: Antimicrobial activity against Enterococcus faecalis ATCC 51299 after 24 hrs by broth microdilution method; assay type: functional; details: ATCC 51299, 24 h

| Structure (SMILES) | MIC (Nakaseomyces glabratus) [µg/mL] | MIC (Escherichia coli [1]) [µg/mL] | MIC (Klebsiella pneumoniae) [µg/mL] | Activity (Artemia salina [2]) | Activity (Artemia salina [3]) | MIC (Listeria monocytogenes) [µg/mL] | MIC (Staphylococcus aureus) [µg/mL] | Activity (Artemia salina [4]) | MIC (Candida albicans) [µg/mL] | Activity (Artemia salina [5]) | MIC (Enterococcus faecalis [6]) [µg/mL] | MIC (Pichia kudriavzevii) [µg/mL] | MIC (Escherichia coli [7]) [µg/mL] | MIC (Pseudomonas aeruginosa) [µg/mL] | LC50 at 24 h [8] [µg/mL] | MIC (Enterococcus faecalis [9]) [µg/mL] |
| --- | --- | --- | --- | --- | --- | --- | --- | --- | --- | --- | --- | --- | --- | --- | --- | --- |
| Cc1nc(SCC(=O)c2ccc(F)c(F)c2)n(Nc2ccc(Cl)cc2)c1C | 100 (≈ 245 µM) | 400 (≈ 981 µM) | 400 (≈ 981 µM) | Non-toxic | Toxic | 50 (≈ 123 µM) | 400 (≈ 981 µM) | Toxic | 50 (≈ 123 µM) | Non-toxic | 50 (≈ 123 µM) | 100 (≈ 245 µM) | 800 (≈ 1960 µM) | 400 (≈ 981 µM) | 359 (≈ 881 µM) | 400 (≈ 981 µM) |
| Cc1ccc(Nn2c(SCC(=O)c3cccc(F)c3)nc(C)c2C)cc1 | 800 (≈ 2170 µM) | 800 (≈ 2170 µM) | 400 (≈ 1080 µM) |  |  | 400 (≈ 1080 µM) | 800 (≈ 2170 µM) |  | 800 (≈ 2170 µM) |  | 200 (≈ 541 µM) | 400 (≈ 1080 µM) | 800 (≈ 2170 µM) | 400 (≈ 1080 µM) |  | 400 (≈ 1080 µM) |
| Cc1ccc(Nn2c(SCC(=O)c3ccc(F)cc3)nc(C)c2C)cc1 | 1600 (≈ 4330 µM) | 1600 (≈ 4330 µM) | 1600 (≈ 4330 µM) |  |  | 1600 (≈ 4330 µM) | 1600 (≈ 4330 µM) |  | 1600 (≈ 4330 µM) |  | 1600 (≈ 4330 µM) | 1600 (≈ 4330 µM) | 1600 (≈ 4330 µM) | 1600 (≈ 4330 µM) |  | 1600 (≈ 4330 µM) |
| Cc1ccc(Nn2c(SCC(=O)c3ccc(F)c(F)c3)nc(C)c2C)cc1 | 400 (≈ 1030 µM) | 800 (≈ 2060 µM) | 800 (≈ 2060 µM) |  |  | 800 (≈ 2060 µM) | 800 (≈ 2060 µM) |  | 200 (≈ 516 µM) |  | 400 (≈ 1030 µM) | 100 (≈ 258 µM) | 800 (≈ 2060 µM) | 800 (≈ 2060 µM) |  | 200 (≈ 516 µM) |
| COc1cccc(C(=O)CSc2nc(C)c(C)n2Nc2ccccc2)c1 | 400 (≈ 1090 µM) | 400 (≈ 1090 µM) | 400 (≈ 1090 µM) |  |  | 800 (≈ 2180 µM) | 800 (≈ 2180 µM) |  | 400 (≈ 1090 µM) |  | 800 (≈ 2180 µM) | 400 (≈ 1090 µM) | 800 (≈ 2180 µM) | 400 (≈ 1090 µM) |  | 800 (≈ 2180 µM) |
| COc1ccc(C(=O)CSc2nc(C)c(C)n2Nc2ccccc2)cc1OC | 800 (≈ 2010 µM) | 800 (≈ 2010 µM) | 400 (≈ 1010 µM) |  |  | 400 (≈ 1010 µM) | 200 (≈ 503 µM) |  | 200 (≈ 503 µM) |  | 400 (≈ 1010 µM) | 50 (≈ 126 µM) | 200 (≈ 503 µM) | 400 (≈ 1010 µM) |  | 800 (≈ 2010 µM) |
| Cc1nc(SCC(=O)c2cccc(F)c2)n(Nc2ccccc2)c1C | 400 (≈ 1130 µM) | 800 (≈ 2250 µM) | 400 (≈ 1130 µM) |  |  | 400 (≈ 1130 µM) | 400 (≈ 1130 µM) |  | 400 (≈ 1130 µM) |  | 400 (≈ 1130 µM) | 200 (≈ 563 µM) | 400 (≈ 1130 µM) | 400 (≈ 1130 µM) |  | 400 (≈ 1130 µM) |
